Experimental data: US20250059220A1, “SUBSTITUTED BENZOTHIOPHENE DERIVATIVES AND METHODS OF USE THEREOF” (Merck Sharp & Dohme LLC, priority 2021, published 2025)

Key:
human PTPN1 (1-435) = human PTPN1 (1-435) (Homo sapiens (Human), UniProt P18031); experiment: Human PTPN1 Biochemical Assay; conditions: DiFMUP substrate, read-out: PTP1B IC50
How it was run: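 Read-out is DiFMUP hydrolysis fluorescence (360 nm excitation, 460 nm emission) after 1 h at room temperature, following 30 min enzyme–compound preincubation.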

human PTPN2 (1-387) = human PTPN2 (1-387) (Homo sapiens (Human), UniProt P17706); experiment: Human PTPN2 Biochemical Assay; conditions: DiFMUP substrate
How it was run: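 Fluorogenic DiFMUP hydrolysis (1 h, room temperature, read ex 360/em 460 nm) after 30 min compound preincubation with PTPN2 residues 1-387, in 50 mM Tris pH 7.4, 150 mM NaCl, 0.01% Tween20, 0.5 mM DTT. Effects scaled between buffer and enzyme controls, 4-parameter fit gives EC50.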

Sequence of human PTPN2 (1-387) (P17706 other isoform, or with tags, fused parts or gaps): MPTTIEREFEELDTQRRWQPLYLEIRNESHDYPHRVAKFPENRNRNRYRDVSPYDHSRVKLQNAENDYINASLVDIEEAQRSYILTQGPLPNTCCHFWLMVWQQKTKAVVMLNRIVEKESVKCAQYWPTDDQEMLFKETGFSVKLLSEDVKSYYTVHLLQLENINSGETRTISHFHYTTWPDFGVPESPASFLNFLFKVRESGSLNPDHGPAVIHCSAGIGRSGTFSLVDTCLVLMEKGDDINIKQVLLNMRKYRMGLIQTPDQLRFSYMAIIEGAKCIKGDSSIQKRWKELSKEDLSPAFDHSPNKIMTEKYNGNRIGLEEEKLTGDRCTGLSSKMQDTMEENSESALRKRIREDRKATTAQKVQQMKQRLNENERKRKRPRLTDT
Sequence of human PTPN1 (1-435) (P18031 whole entry): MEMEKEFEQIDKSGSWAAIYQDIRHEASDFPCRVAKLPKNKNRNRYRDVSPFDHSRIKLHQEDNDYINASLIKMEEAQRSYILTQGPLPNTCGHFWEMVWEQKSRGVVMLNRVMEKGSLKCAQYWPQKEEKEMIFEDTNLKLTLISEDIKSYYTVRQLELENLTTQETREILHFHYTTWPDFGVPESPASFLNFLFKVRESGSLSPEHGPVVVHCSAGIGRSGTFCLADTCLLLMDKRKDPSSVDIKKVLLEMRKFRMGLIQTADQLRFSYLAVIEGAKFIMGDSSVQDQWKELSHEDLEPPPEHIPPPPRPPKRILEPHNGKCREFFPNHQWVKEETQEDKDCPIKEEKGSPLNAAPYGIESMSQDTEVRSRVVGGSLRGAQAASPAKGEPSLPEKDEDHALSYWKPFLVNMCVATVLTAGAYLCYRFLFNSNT

Compound	IC50 (human PTPN1 (1-435)) [µM]	IC50 (human PTPN2 (1-387)) [µM]
COC(C)(C)C#Cc1cc(C(N)=O)cc2c(Br)c(C(F)(F)P(=O)(O)O)sc12 [Compound 234, ((3-bromo-5-carbamoyl-7-(3-methoxy-3-methylbut-1-yn-1-yl)benzo[b]thiophen-2-yl)difluoromethyl)phosphonic acid]	0.49	0.773
Cc1ccc(COc2cc(C(N)=O)cc3c(Br)c(C(F)(F)P(=O)(O)O)sc23)c(C)c1 [Compound 337]	0.158	0.0833
Cc1ncc(-c2cc(OCCCC(F)(F)F)c3sc(C(F)(F)P(=O)(O)O)c(Br)c3c2)[nH]1 [Compound 452, ((3-bromo-5-(2-methyl-1H-imidazol-5-yl)-7-(4,4,4-trifluorobutoxy)benzo[b]thiophen-2-yl)difluoromethyl)phosphonic acid]	0.0719	0.0639
O=C(NC1CC(F)(F)C1)c1ccc2sc(C(F)(F)P(=O)(O)O)c(Br)c2c1 [Compound 27]	2.19	3.23
O=C(NCc1ccccc1N1CCOCC1)c1ccc2sc(C(F)(F)P(=O)(O)O)c(Br)c2c1 [Compound 90]	4.21	5.8
NC(=O)c1cc(OCC(F)CC(F)(F)F)c2sc(C(F)(F)P(=O)(O)O)c(Br)c2c1 (centres unmarked) [Compound 464, ((3-bromo-5-carbamoyl-7-(2,4,4,4-tetrafluorobutoxy)benzo[b]thiophen-2-yl)difluoromethyl)phosphonic acid]	0.0426	0.0397
COc1cc(C(=O)NCc2cccnn2)cc2c(Br)c(C(F)(F)P(=O)(O)O)sc12 [Compound 163]	0.436	0.301
O=C(NCc1ccon1)c1ccc2sc(C(F)(F)P(=O)(O)O)c(Br)c2c1 [Compound 179]	2.84	2.57
NC(=O)c1cc(-c2cc[nH]n2)c2sc(C(F)(F)P(=O)(O)O)c(Br)c2c1 [Compound 415, ((3-bromo-5-carbamoyl-7-(1H-pyrazol-3-yl)benzo[b]thiophen-2-yl)difluoromethyl)phosphonic acid]	3.93	3.84
O=P(O)(O)C(F)(F)c1sc2c(OCCCC(F)(F)F)cc(-c3nc[nH]n3)cc2c1Br [Compound 232, ((3-bromo-5-(1H-1,2,4-triazol-3-yl)-7-(4,4,4-trifluorobutoxy)benzo[b]thiophen-2-yl)difluoromethyl)phosphonic acid]	0.0034	0.00306
O=P(O)(O)C(F)(F)c1sc2ccc(-c3cnn[nH]3)cc2c1Br [Compound 229, ((3-bromo-5-(1H-1,2,3-triazol-5-yl)benzo[b]thiophen-2-yl)difluoromethyl)phosphonic acid]	0.531	0.0862
O=C(NC1CCS(=O)(=O)C1)c1ccc2sc(C(F)(F)P(=O)(O)O)c(Br)c2c1 (centres unmarked) [Compound 56]	2.88	3.93
O=C(NCCn1ccnn1)c1ccc2sc(C(F)(F)P(=O)(O)O)c(Br)c2c1 [Compound 147]	3.19	5.66
COCC(NC(=O)c1ccc2sc(C(F)(F)P(=O)(O)O)c(Br)c2c1)c1ccc(F)cc1 (centres unmarked) [Compound 112]	3.68	2.91
O=C(NCC(F)(F)F)c1ccc2sc(C(F)(F)P(=O)(O)O)c(Br)c2c1 [Compound 49]	4.15	5.09
Cc1ccc(CNC(=O)c2ccc3sc(C(F)(F)P(=O)(O)O)c(Br)c3c2)nn1 [Compound 137]	1.09	1.42
O=C1NC[C@H](CNC(=O)c2ccc3sc(C(F)(F)P(=O)(O)O)c(Br)c3c2)N1 [Compound 132]	4.7	5.23
Cn1cncc1CNC(=O)c1ccc2sc(C(F)(F)P(=O)(O)O)c(Br)c2c1 [Compound 141]	2.32	3.72
O=C(Nc1ccccc1)c1ccc2sc(C(F)(F)P(=O)(O)O)c(Cl)c2c1 [Compound 215, ((3-chloro-5-(phenylcarbamoyl)benzo[b]thiophen-2-yl)difluoromethyl)phosphonic acid]	7.55	8.43
O=C(NCC1CCCN(c2ncccn2)C1)c1ccc2sc(C(F)(F)P(=O)(O)O)c(Br)c2c1 (centres unmarked) [Compound 114]	3.5	5.17
CCC(NC(=O)c1ccc2sc(C(F)(F)P(=O)(O)O)c(Br)c2c1)c1ncnn1C (centres unmarked) [Compound 191]	3.6	2.83
NC(=O)c1cc(OCc2ccc(C3CCN(CC(F)(F)F)CC3)cc2)c2sc(C(F)(F)P(=O)(O)O)c(Br)c2c1 [Compound 350]	0.406	0.159
O=C(Nc1cccc(OCC2CCCO2)c1)c1ccc2sc(C(F)(F)P(=O)(O)O)c(Br)c2c1 (centres unmarked) [Compound 17]	1.46	1.91
N#CC1(c2ccc(NC(=O)c3ccc4sc(C(F)(F)P(=O)(O)O)c(Br)c4c3)cc2)CCCCC1 [Compound 21]	1.41	2.15
O=C(NCCc1c[nH]c2ccccc12)c1ccc2sc(C(F)(F)P(=O)(O)O)c(Br)c2c1 [Compound 153]	3.16	1.95
O=C(NCCc1nc(-c2ccccc2)cs1)c1ccc2sc(C(F)(F)P(=O)(O)O)c(Br)c2c1 [Compound 82]	1.39	1.88
O=C(N[C@H]1CC[C@H](C(F)(F)F)CC1)c1ccc2sc(C(F)(F)P(=O)(O)O)c(Br)c2c1 [Compound 52]	5.68	6.82
Cc1cc(NC(=O)c2ccc3sc(C(F)(F)P(=O)(O)O)c(Br)c3c2)n(Cc2ccccc2)n1 [Compound 73]	2.56	3.08
O=P(O)(O)C(F)(F)c1sc2c(OCCCC(F)(F)F)cc(-c3ccn[nH]3)cc2c1Br [Compound 260, ((3-bromo-5-(1H-pyrazol-5-yl)-7-(4,4,4-trifluorobutoxy)benzo[b]thiophen-2-yl)difluoromethyl)phosphonic acid]	0.0114	0.0157

The next lines start with the values.

IC50 (human PTPN1 (1-435)) [µM]	IC50 (human PTPN2 (1-387)) [µM]	Compound
0.0025	0.0026	Cc1nn[nH]c1-c1cc(OCCCC(F)(F)F)c2sc(C(F)(F)P(=O)(O)O)c(Br)c2c1 [Compound 366]
0.0172	0.0164	CNC(=O)c1cc(OCCCC(F)(F)F)c2sc(C(F)(F)P(=O)(O)O)c(Br)c2c1 [Compound 203]
0.14	0.0385	NC(=O)c1cc(OCc2ccc(-n3cncn3)cc2)c2sc(C(F)(F)P(=O)(O)O)c(Br)c2c1 [Compound 353]
0.0365	0.0238	NC(=O)c1cc(OCc2ccc(Cl)c(Cl)c2)c2sc(C(F)(F)P(=O)(O)O)c(Br)c2c1 [Compound 347]
0.0777	0.0685	NC(=O)c1cc(C#CCCS(N)(=O)=O)c2sc(C(F)(F)P(=O)(O)O)c(Br)c2c1 [Compound 310]
0.037	0.0421	CS(=O)(=O)CCCOc1cc(C(N)=O)cc2c(Cl)c(C(F)(F)P(=O)(O)O)sc12 [Compound 333]
0.0288	0.0238	NC(=O)c1cc(OCCCC2(O)CC2)c2sc(C(F)(F)P(=O)(O)O)c(Br)c2c1 [Compound 331]
0.017	0.0273	NC(=O)c1cc(OCC2CC3(C2)CC(F)(F)C3)c2sc(C(F)(F)P(=O)(O)O)c(Br)c2c1 [Compound 276]
0.026	0.0171	NC(=O)c1cc(OCc2ccc3c(c2)CCS3(=O)=O)c2sc(C(F)(F)P(=O)(O)O)c(Br)c2c1 [Compound 386]
0.016	0.0453	NC(=O)c1cc(OCC2C3CC4C(C3)C24)c2sc(C(F)(F)P(=O)(O)O)c(Br)c2c1 (centres unmarked) [Compound 287]
0.0209	0.0293	CNC(=O)c1cc(OCCC2CC2(F)F)c2sc(C(F)(F)P(=O)(O)O)c(Br)c2c1 (centres unmarked) [Compound 322]
0.093	0.132	CCOCCCOc1cc(C(N)=O)cc2c(Br)c(C(F)(F)P(=O)(O)O)sc12 [Compound 273]
0.0595	0.0101	NC(=O)c1cc(OCc2ccc(-c3ccncc3)cc2)c2sc(C(F)(F)P(=O)(O)O)c(Br)c2c1 [Compound 402]
0.024	0.0263	NC(=O)c1cc(OCCC2CCCS2(=O)=O)c2sc(C(F)(F)P(=O)(O)O)c(Br)c2c1 (centres unmarked) [Compound 264, ((3-bromo-5-carbamoyl-7-(2-(1,1-dioxidotetrahydrothiophen-2-yl)ethoxy)benzo[b]thiophen-2-yl)difluoromethyl)phosphonic acid]
0.0086	0.012	CNS(=O)(=O)CCCOc1cc(C(N)=O)cc2c(Br)c(C(F)(F)P(=O)(O)O)sc12 [Compound 373]
0.0274	0.0215	Cc1c(C(F)(F)P(=O)(O)O)sc2c(OCc3ccc(S(C)(=O)=O)cc3)cc(C(N)=O)cc12 [Compound 438]
0.0358	0.0151	CS(=O)(=O)c1ccc(COc2cc(C(N)=O)cc3c(Br)c(C(F)(F)P(=O)(O)O)sc23)c(Cl)c1 [Compound 387]
0.0141	0.0078	CS(=O)(=O)c1ccc(COc2cc(C(N)=O)cc3c(Br)c(C(F)(F)P(=O)(O)O)sc23)c(F)c1 [Compound 389]
0.117	0.114	Cc1c(C(F)(F)P(=O)(O)O)sc2c(OCCCS(N)(=O)=O)cc(C(N)=O)cc12 [Compound 432]
0.0109	0.00906	O=C(NCc1cc[nH]n1)c1cc(OCCCC(F)(F)F)c2sc(C(F)(F)P(=O)(O)O)c(Br)c2c1 [Compound 201]
0.0217	0.0137	NC(=O)c1cc(OCc2ccc(C(F)(F)F)c(F)c2)c2sc(C(F)(F)P(=O)(O)O)c(Br)c2c1 [Compound 357]
0.018	0.0269	NC(=O)c1cc(OCCC2CCCS2(=O)=O)c2sc(C(F)(F)P(=O)(O)O)c(Br)c2c1 (single isomer, unassigned) [Compound 371]
0.146	0.132	NC(=O)c1cc(CCc2ccccc2)c2sc(C(F)(F)P(=O)(O)O)c(Br)c2c1 [Compound 313]
